Laboratory results as given in patent US8455475B2 (Gruenenthal GmbH, priority 2009, dated 2013).

Experiments:
[1] = target: T1, human B1R (bradykinin receptor 1) (Homo sapiens, UniProt P46663); assay: FLIPR Ca2+ assay (Fluo-4) on CHO K1 cells stably transfected with the human B1R gene (hB1R cells): % inhibition at 10 μM / IC50, agonist Lys-Des-Arg9-bradykinin; assay type: cell-based; settings: CHO-K1, human B1R
T1 construct: expressed in transfected cells; host or cells: CHO K1 cells
T1 sequence (P46663 1-353): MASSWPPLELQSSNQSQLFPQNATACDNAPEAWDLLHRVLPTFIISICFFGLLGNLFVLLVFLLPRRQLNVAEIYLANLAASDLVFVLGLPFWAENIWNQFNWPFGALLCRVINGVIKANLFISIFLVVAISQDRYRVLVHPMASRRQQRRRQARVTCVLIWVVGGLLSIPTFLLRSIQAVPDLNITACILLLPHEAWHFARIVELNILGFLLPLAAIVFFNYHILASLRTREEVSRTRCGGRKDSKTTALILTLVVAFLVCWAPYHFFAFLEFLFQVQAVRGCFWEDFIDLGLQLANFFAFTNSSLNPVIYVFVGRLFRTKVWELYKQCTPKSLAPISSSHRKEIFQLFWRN
In short: (§1)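 Cells were Fluo-4-loaded, then test compound (10 μM, or a concentration series for IC50) was preincubated 10–20 min before agonist challenge at EC80: Lys-Des-Arg9-bradykinin for hB1R, Des-Arg9-bradykinin for rB1R. Peak Ca2+ fluorescence (ex 488/em 540 nm) gave % inhibition versus maximal achievable inhibition.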

[2] = target: T2, rat B1R (bradykinin receptor 1) (Rattus norvegicus, UniProt P97583); assay: FLIPR Ca2+ assay (Fluo-4) on CHO K1 cells stably transfected with the B1R gene of the rat (rB1R cells): % inhibition at 10 μM / IC50, agonist Des-Arg9-bradykinin; assay type: cell-based; settings: CHO-K1, rat B1R
T2 construct: expressed in transfected cells; host or cells: CHO K1 cells
T2 sequence (P97583 1-337): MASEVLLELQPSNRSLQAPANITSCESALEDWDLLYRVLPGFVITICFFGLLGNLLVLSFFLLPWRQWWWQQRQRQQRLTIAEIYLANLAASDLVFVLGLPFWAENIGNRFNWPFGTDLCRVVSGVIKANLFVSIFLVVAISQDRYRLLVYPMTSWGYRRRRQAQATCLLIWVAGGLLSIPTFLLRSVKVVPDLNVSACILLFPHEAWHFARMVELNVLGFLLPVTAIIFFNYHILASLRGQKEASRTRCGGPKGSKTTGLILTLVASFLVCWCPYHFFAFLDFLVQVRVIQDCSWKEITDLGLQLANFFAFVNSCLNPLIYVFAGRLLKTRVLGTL
In short: as §1

Row | Structure (SMILES) | inhibition at 10 µM [1] [%] | inhibition at 10 µM [2] [%]
1 | CN(C)C1(c2ccc(F)cc2)CCC2(CCN(C(=O)c3ccc4c(c3)C(N(C(=O)c3ccccc3Cl)C3CC3)CC4)CC2)CC1 (stereo not shown) [Ind_CC-117, 2-chloro-N-cyclopropyl-N-[6-[9-dimethylamino-9-(4-fluorophenyl)-3-azaspiro[5.5]undecane-3-carbonyl]-2,3-dihydro-1H-inden-1-yl]-benzamide] | 56 | 77
2 | O=C(c1ccc2c(c1)C(N(C(=O)c1ccccc1Cl)C1CC1)CC2)N1CCC2(CC1)CCN(c1ccncc1)C2 (stereo not shown) [Ind_CC-119, 2-chloro-N-cyclopropyl-N-[6-(2-pyridin-4-yl-2,8-diazaspiro[4.5]decane-8-carbonyl)-2,3-dihydro-1H-inden-1-yl]-benzamide] | 99 | 104
3 | O=C(NC1CCCCc2ccc(C(=O)N3CCC4(CC3)CCN(c3ccncc3)CC4)cc21)c1ccccc1Cl (stereo not shown) [Ind_CC-120, 2-chloro-N-[3-(9-pyridin-4-yl-3,9-diazaspiro[5.5]undecane-3-carbonyl)-6,7,8,9-tetrahydro-5H-benzocyclohepten-5-yl]-benzamide] | 56 | 99

Now from value to compound:

Row | inhibition at 10 µM [1] [%] | inhibition at 10 µM [2] [%] | Structure (SMILES)
4 | 100 | 103 | O=C(c1ccc2c(c1)C(N(C(=O)c1ccccc1Cl)C1CC1)CC2)N1CCC2(CCN(c3ccncc3)CC2)C1 (stereo not shown) [Ind_CC-118, 2-chloro-N-cyclopropyl-N-[6-(8-pyridin-4-yl-2,8-diazaspiro[4.5]decane-2-carbonyl)-2,3-dihydro-1H-inden-1-yl]-benzamide]
5 | 46 | 103 | O=C(NC1CCCCc2ccc(C(=O)N3CCC4(CC3)CCN(c3cccnc3)CC4)cc21)c1ccccc1Cl (stereo not shown) [Ind_CC-121, 2-chloro-N-[3-(9-pyridin-3-yl-3,9-diazaspiro[5.5]undecane-3-carbonyl)-6,7,8,9-tetrahydro-5H-benzocyclohepten-5-yl]-benzamide]
